According to paper PMC4515242, “ESR and X-ray Structure Investigations on the Binding and Mechanism of Inhibition of the Native State of Myeloperoxidase with Low Molecular Weight Fragments” (Applied Magnetic Resonance, 2015):

Key:
hMPO [1] = molecular target: T1, hMPO (Homo sapiens, UniProt P05164); test: Reversible binding assay (filtration and ESR after washing); settings: bound complex washed with buffer, then ESR at 4 K
T1 construct: purchased Biodesign A31804H
T1 sequence (P05164 49-745): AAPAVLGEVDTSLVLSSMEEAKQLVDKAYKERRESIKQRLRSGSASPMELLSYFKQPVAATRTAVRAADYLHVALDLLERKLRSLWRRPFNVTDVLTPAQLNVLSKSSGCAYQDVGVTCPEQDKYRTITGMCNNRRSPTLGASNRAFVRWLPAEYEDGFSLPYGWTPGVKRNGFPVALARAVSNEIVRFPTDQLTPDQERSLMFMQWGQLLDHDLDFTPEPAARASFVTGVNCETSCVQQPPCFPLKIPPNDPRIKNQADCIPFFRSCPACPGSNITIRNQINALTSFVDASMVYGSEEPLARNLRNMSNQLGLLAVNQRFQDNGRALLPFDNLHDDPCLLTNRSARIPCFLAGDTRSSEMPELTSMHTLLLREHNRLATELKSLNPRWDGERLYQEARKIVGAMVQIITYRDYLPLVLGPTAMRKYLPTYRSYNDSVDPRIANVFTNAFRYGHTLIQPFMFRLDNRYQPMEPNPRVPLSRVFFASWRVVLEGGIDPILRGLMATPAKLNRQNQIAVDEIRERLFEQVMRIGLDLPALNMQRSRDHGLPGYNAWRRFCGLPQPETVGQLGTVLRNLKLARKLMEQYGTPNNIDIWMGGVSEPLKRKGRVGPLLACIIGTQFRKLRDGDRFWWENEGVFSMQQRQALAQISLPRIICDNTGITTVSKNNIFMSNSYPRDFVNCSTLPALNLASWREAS
Protocol: We performed the following two assays for independently confirming the reversibility of binding. In the filtration method, hMPO stock (1.5 mg/ml) is diluted to 5 μg/ml with 20 mM phosphate buffer pH 7.4, 10 % glycerol (no gelatin). 120 μl of this solution is mixed with an equal volume of the compounds at a concentration of 30 μM (final concentration […]), followed by mixing in the plate and incubation for 15 min. at room temperature. 120 μl aliquot of this solution is transferred into separate YM30 Micron filter units and centrifuged 6 min at 9000 rpm, followed by the addition of 300 μl of the buffer and further centrifugation for 12 min. at 9000 rpm. Wash and centrifuge cycles are repeated 2 more times with 300 μl buffer, each followed by 12 min. centrifugation steps. The protein left on the membrane is mixed with the PB buffer to a final volume of 120 μl and subjected to Alpha screen method as described before to probe the nitration of Apo A1 peptide substrate which is taken as a confirmation of the restoration of the catalytic activity of the protein.
In the ESR protocol, the methodology of Hori et al. was applied with some modifications.The protocol followed is similar to the binding assay except that a higher concentration of hMPO (9.2 μM final) is used. This is necessary as multiple washings followed by dilutions lead to considerable loss of the enzyme due to its retention on the membrane. After 5 min of incubation in the eppendorf at room temperature, the contents were transferred to an Amicon Ultra-4 tube (5 ml capacity) and filled with 4 ml of 0.1 M sodium acetate buffer (containing 50 mM NaCl) pH 6.0. Using spin conditions of 4000×g in a swinging bucket rotor at 20 °C, the samples are washed repeatedly (2×) followed with a final wash containing 1 ml of the sodium acetate buffer (chloride free) + 25 % n-propanol and then concentrated. The concentrated solution ca. 300 μl is transferred to ESR quartz tubes and measured at 4 K. A higher concentration of MPO in these reversible binding assays enabled a good ESR signal over noise from the washed (3X) sample.

hMPO [2] = molecular target: T1, hMPO; test: Peroxidase inhibition assay: ESR of hMPO exposed to H2O2 with and without inhibitor; assay type: biochemical; settings: inhibitor added before H2O2 (555 μM); inhibitor:MPO 40:1, in DMSO
Protocol: Hydrogen peroxide (30 %, v/v; 9.71 M) is used with different dilutions in ice-cold deionized water. MPO at 50 μl of 20.8 μM (4.6 μM final concentration) is incubated with different concentrations of H2O2 in the absence and in the presence of inhibitors (inhibitor to MPO concentration is 40:1) for 1 min and rapidly frozen at 77 K. The inhibitors are added to MPO, incubated for 5 min prior to H2O2 addition in these reactions.

[3] = molecular target: T2, native state (Fe3+) of hMPO (Homo sapiens, UniProt P05164); test: Low temperature ESR binding assay (binding-induced g shift, Rrelative); settings: for ESR Rrelative: Rrelative = (Rbound - Rnative)/Rnative x 100, inhibitor:MPO 40:1, pH 6, 6 % DMSO, 4-7 K; for Δg: absolute difference between g X and g Y of the bound complex; for ESR Binding: class by Rrelative, inhibitor:MPO 40:1; for g X / g Y: electronic g value of the bound complex, X-band ESR, 5 K
T2 construct: purchased Athens Research and Technology
T2 sequence (P05164 49-745): T1 sequence (P05164 49-745)
Protocol: After 5-min. incubation at room temperature, the entire reaction mixture (0.235 mL) was transferred to the ESR quartz tubes. To avoid the quartz tubes breaking during the rapid freezing cycles, the ESR tubes were initially frozen in a 1:1 Isopentane-Cyclohexane mixture cooled with dry ice powder and then transferred to a liquid nitrogen Dewar to be queued up for ESR measurements. The reaction mixture contained a final concentration of 6 % DMSO. ESR spectra were recorded on a Varian E-12, X-band spectrometer equipped with an Air Products liquid helium cryostat.
The experimental g values correspond to the spin Hamiltonian pertinent to the high-spin ion (S = 5/2).1 H=DSZ2-1/3SS+1+E/DSX2-SY2+βgeS.Be where D and E are the eigen values of the axial and rhombic field components, i.e., the symmetry of the ligand (inhibitors approaching heme in this case). […] When the heme lodges inside the protein, the protein side chain amino acid (histidine) approaches the heme vicinity and either binds (axially) directly to the iron in the heme pocket. […] Thus, the fifth ligand leads to lower (rhombic) symmetries causing the signal at g ~ 6 to split. This non-tetragonal splitting of the heme is quantitated by the relationship,2 E/D=Δg/48 where ∆g represents the absolute difference between the gX and gY components. Alternatively, making use of the fact that E/D maximum value = 1/3, one can simplify the above expression as a percentage of rhombicity, R:3 R=Δg/16×100%. […] To rank-order molecules in terms of their ability to distort the heme pocket/plane environment, we used a ratio of total distortion in the bound complex w.r.t. distortion seen in the native unbound enzyme:4 Rrelative=Rbound-Rnative/Rnative×100.
From the relative rhombicities of the bound and unbound complex, a measure of the strength of binding could be derived. […] For the ease of classification, we have empirically defined those with 5 ≤ Rrelative ≥ 2 as weak binding; 15 ≥ Rrelative ≥ 10 as moderate binding; and 25 ≥ Rrelative ≥ 15 as strong binding (Table 2).

[4] = ESR, Inhibitor:MPO ratio 40:1, DMSO 6 %

Structure (SMILES)	reversibility of the binding (hMPO [1])	prevention of peroxide-induced ESR changes (decay of g X and g Y, growth of g ~ 6) (hMPO [2])	proportion of the enzyme bound [3, 4] [%]	proportion of the enzyme unbound [3, 4] [%]	ESR Rrelative [3]	Δg [3]	ESR Binding [3]	g X [3]	g Y [3]
O=C(O)c1nn(-c2ccccc2)cc1O [LSN17948]	Reversible in its action	The spectrum is unchanged and no g intermediate signal is seen	70	30	24.2	2.256	Strong (25 ≥ Rrelative ≥ 15 as strong binding)	6.995	4.739
O=C(O)c1n[nH]c(-c2ccccc2)c1O [LSN87637]	Reversible in its action				14.1	2.09	Moderate (15 ≥ Rrelative ≥ 10 as moderate binding)	6.917	4.827
O=C(O)c1nn(-c2cccc3ccccc23)cc1O [LSN2944556]	Reversible in its action				29.1	2.308	Strong (25 ≥ Rrelative ≥ 15 as strong binding)	7.0681	4.7601
